Assay results taken from US20210106542A1, “COMPOSITION AND METHOD FOR INHIBITING PLATELET AGGREGATION” (priority 2015, published 2021).

Legend:
[1] = test system: superactivated platelets (SAPs); assay: SAP inhibition by combinatorial drug treatment (flow cytometry of PRP); assay type: cell-based, human; settings: 50 μM; PRP 30 minutes at 37° C.; normalized relative to Control
Procedure: A venipuncture sample of 10 mL of blood is obtained from each patient. Of the 10 mL, a 3 mL aliquot of blood is added to a tube containing 0.5 mL of acid-citrate-dextrose solution (38 mM citric acid, 75 mM sodium citrate, 135 mM glucose) to prevent clotting. […] After centrifuging at 1100 rpm for 10 minutes at room temperature, platelet rich plasma (PRP), which is the upper layer, is removed. The PRP is transferred to a new tube, leaving about 0.5 mL above the buffy coat layer. The PRP-containing tube is incubated with 10 μL of thrombin and convulxin, two agonists that activate the platelets, for five minutes. […] APC-SA recognizes superactivated platelets that more readily bind the biotinylated fibrinogen to their surface. […]
Each sample is analyzed by a Beckman Coulter CyAn flow cytometer (Beckman Coulter, Fullerton, Calif.). Results are analyzed by the Summit program (Beckman Coulter). […] The SAPs are expressed as a percentage of the total number of events in the sample. […]
Aliquots of platelet rich plasma (PRP) were incubated with aqueous saline solutions of resveratrol only, quercetin only, naltrexone only, and with an admixture of resveratrol, quercetin and naltrexone (RQN) for a time period of 30 minutes at 37° C. […] Multi-color immunofluorescence was noted, and analyzed as described in Example 1, above.

[2] = cited from earlier work; for Bioavailability: literature reference
[3] = test system: POAG subject platelets; assay: SAP levels at varying doses of R, Q, N alone or in combination, POAG subject; assay type: cell-based, human; settings: POAG patient
Procedure: (§1) Resveratrol, quercetin and naltrexone were tested in vitro using 100-microliter assay solutions with (A) a control subject platelets and (B) a POAG subject platelets. A marked reduction in SAPs at 1 μM resveratrol, 1 μM quercetin, 1 μM naltrexone in both the control subject platelets and the POAG patient's platelets was observed, representing a synergistic decrease as compared to the compounds alone.

[4] = test system: control subject platelets; assay: SAP levels at varying doses of R, Q, N alone or in combination, control subject; assay type: cell-based, human; settings: control patient
Procedure: as §1

[5] = test system: SAPs; assay: SAP reduction compared to known anti-platelet drugs; assay type: cell-based, human
Procedure: SAPs were analyzed in the presence of resveratrol, quercetin, and naltrexone and compared to known anti-platelet drugs. Student's t-test with Turkey Post Hoc correction was used to determine significance levels comparing untreated to drug treated samples. The appropriate doses for other anti-platelet drugs were established by routine clinical use.

[6] = test system: thrombin production; assay: Thrombin generation test; assay type: biochemical, human
Procedure: Thrombin generation test, a clinical test to determine if a drug impedes blood clotting, was conducted as described below. […] The results are shown in Table 11, below, and in FIG. 5. The RQN combination decreased thrombin in a manner similar to other commonly used anti-platelet drugs, further indicating the safety of the RQN combination.

O=C1CC[C@@]2(O)[C@H]3Cc4ccc(O)c5c4[C@@]2(CCN3CC2CC2)[C@H]1O5 [Naltrexone, 17-(cyclopropylmethyl)-4,5α-epoxy-3,14-dihydroxymorphinan-6-one]
% Reduction in SAPs [1]: 52.2% | % SAPs [1]: 47.8% | Bioavailability [2]: 33%^3 | SAP % ([3]; R/Q/N 0/0/1 uM): 44.27% | SAP % Change ([3]; R/Q/N 0/0/1 uM): −22.17% | SAP % ([3]; R/Q/N 0/0/10 uM): 40.84% | SAP % Change ([3]; R/Q/N 0/0/10 uM): −28.20% | SAP % ([3]; R/Q/N 0/0/50 uM): 38.93% | SAP % Change ([3]; R/Q/N 0/0/50 uM): −31.56% | SAP % ([4]; R/Q/N 0/0/1 uM): 30.80% | SAP % Change ([4]; R/Q/N 0/0/1 uM): −15.13% | SAP % ([4]; R/Q/N 0/0/10 uM): 20.77% | SAP % Change ([4]; R/Q/N 0/0/10 uM): −42.77% | SAP % ([4]; R/Q/N 0/0/50 uM): 18.03% | SAP % Change ([4]; R/Q/N 0/0/50 uM): −50.32%

CC(C)Cc1ccc(C(C)C(=O)O)cc1 (stereo not drawn) [Ibuprofen]
SAP % Decrease ([5]; 100 μM, Alzheimer's (n = 6)): −15.30% | SAP % Decrease ([5]; 100 μM, Control (n = 6)): −31.40% | SAP % Decrease ([5]; 100 μM, POAG (n = 6)): −16.84% | Thrombin % Decrease ([6]; 100 μM, Alzheimer's (n = 6)): −95.08% | Thrombin % Decrease ([6]; 100 μM, Control (n = 6)): −106.45% | Thrombin % Decrease ([6]; 100 μM, POAG (n = 6)): −101.37%

Oc1ccc(/C=C/c2cc(O)cc(O)c2)cc1 [Resveratrol, 3,5,4′-trihydroxy-trans-stilbene]
Half-life ([2]; in vivo): 1 to 3 h | Bioavailability [2]: 5%^1 | SAP % ([3]; R/Q/N 1/0/0 uM): 53.30% | SAP % Change ([3]; R/Q/N 1/0/0 uM): −6.29% | SAP % ([3]; R/Q/N 5/0/0 uM): 53.78% | SAP % Change ([3]; R/Q/N 5/0/0 uM): −5.45% | SAP % ([3]; R/Q/N 10/0/0 uM): 43.53% | SAP % Change ([3]; R/Q/N 10/0/0 uM): −23.47% | SAP % ([4]; R/Q/N 1/0/0 uM): 32.20% | SAP % Change ([4]; R/Q/N 1/0/0 uM): −11.27% | SAP % ([4]; R/Q/N 5/0/0 uM): 30.98% | SAP % Change ([4]; R/Q/N 5/0/0 uM): −14.63% | SAP % ([4]; R/Q/N 10/0/0 uM): 30.24% | SAP % Change ([4]; R/Q/N 10/0/0 uM): −16.67%

O=C(NC[C@H]1CN(c2ccc(N3CCOCC3=O)cc2)C(=O)O1)c1ccc(Cl)s1 [Rivaroxaban]
SAP % Decrease ([5]; 1 μM, Alzheimer's (n = 6)): −15.63% | SAP % Decrease ([5]; 1 μM, Control (n = 6)): −23.38% | SAP % Decrease ([5]; 1 μM, POAG (n = 6)): −48.73% | Thrombin % Decrease ([6]; 1 μM, Alzheimer's (n = 6)): −186.56% | Thrombin % Decrease ([6]; 1 μM, Control (n = 6)): −183.06% | Thrombin % Decrease ([6]; 1 μM, POAG (n = 6)): −184.65%

Dabigatran
SAP % Decrease ([5]; 100 μM, Alzheimer's (n = 6)): −8.09% | SAP % Decrease ([5]; 100 μM, Control (n = 6)): −0.16% | SAP % Decrease ([5]; 100 μM, POAG (n = 6)): −11.21% | Thrombin % Decrease ([6]; 100 μM, Alzheimer's (n = 6)): −109.55% | Thrombin % Decrease ([6]; 100 μM, Control (n = 6)): −101.97% | Thrombin % Decrease ([6]; 100 μM, POAG (n = 6)): −100.45%

O=c1c(O)c(-c2ccc(O)c(O)c2)oc2cc(O)cc(O)c12 [Quercetin, 3,3′,4′5,7-pentahydroxy-2-phenylchromen-4-one]
Bioavailability [2]: 11%^2 | SAP % ([3]; R/Q/N 0/1/0 uM): 49.18% | SAP % Change ([3]; R/Q/N 0/1/0 uM): −13.54% | SAP % ([3]; R/Q/N 0/5/0 uM): 48.25% | SAP % Change ([3]; R/Q/N 0/5/0 uM): −15.17% | SAP % ([3]; R/Q/N 0/10/0 uM): 43.27% | SAP % Change ([3]; R/Q/N 0/10/0 uM): −23.93% | SAP % ([4]; R/Q/N 0/1/0 uM): 30.36% | SAP % Change ([4]; R/Q/N 0/1/0 uM): −16.34% | SAP % ([4]; R/Q/N 0/5/0 uM): 30.53% | SAP % Change ([4]; R/Q/N 0/5/0 uM): −15.87% | SAP % ([4]; R/Q/N 0/10/0 uM): 21.47% | SAP % Change ([4]; R/Q/N 0/10/0 uM): −40.84%

CC(=O)Oc1ccccc1C(=O)O [Aspirin]
SAP % Decrease ([5]; 100 μM, Alzheimer's (n = 6)): −17.32% | SAP % Decrease ([5]; 100 μM, Control (n = 6)): −17.00% | SAP % Decrease ([5]; 100 μM, POAG (n = 6)): −26.69% | Thrombin % Decrease ([6]; 100 μM, Alzheimer's (n = 6)): −75.46% | Thrombin % Decrease ([6]; 100 μM, Control (n = 6)): −76.05% | Thrombin % Decrease ([6]; 100 μM, POAG (n = 6)): −104.39%
